From ChEMBL document CHEMBL1201862, “PubChem BioAssay data set” (2004)
Calls of active or inactive are those of the source.

Assays:
[1] = molecular target: T1, Streptokinase A (Streptococcus pyogenes serotype M1, UniProt P10520); experiment: S. pyogenes streptokinase expression inhibitors, potency, dose response, plasminogen activation absorbance, OD405 (AID 1914); assay type: functional, Streptococcus pyogenes M1 GAS;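 also: secreted streptokinase activity via plasminogen activation per viability signal from cell pellet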
T1 sequence (P10520 whole entry): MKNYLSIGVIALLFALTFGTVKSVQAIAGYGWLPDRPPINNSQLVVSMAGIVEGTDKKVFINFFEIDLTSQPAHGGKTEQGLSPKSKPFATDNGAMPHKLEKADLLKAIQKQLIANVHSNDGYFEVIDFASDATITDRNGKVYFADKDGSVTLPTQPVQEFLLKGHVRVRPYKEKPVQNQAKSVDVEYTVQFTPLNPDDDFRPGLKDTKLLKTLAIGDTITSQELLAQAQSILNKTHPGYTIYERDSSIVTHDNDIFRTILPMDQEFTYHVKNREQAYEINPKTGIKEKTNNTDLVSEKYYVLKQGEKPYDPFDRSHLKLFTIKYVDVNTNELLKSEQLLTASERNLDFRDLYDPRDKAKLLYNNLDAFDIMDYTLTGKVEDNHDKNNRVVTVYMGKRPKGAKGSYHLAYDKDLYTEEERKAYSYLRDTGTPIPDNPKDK

[2] = tested on: Streptococcus sp. 'group A'; experiment: growth inhibition of control SK(-) GAS strain, dose response, counter-screen for streptokinase expression inhibitor project, luminescence, kanamycin, BacTiterGlo, confirmation (AID 1900); assay type: functional, organism-based
[3] = tested on: Streptococcus; experiment: Group A Streptococcus viability loss, dose response, counter-screen for streptokinase expression inhibitor project, luminescence, BacTiterGlo (AID 1915); assay type: functional, organism-based;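 also: potency for reduction of bacterial viability or growth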
[4] = cytotoxicity toward NIH3T3 fibroblasts, dose response, counter-screen, cell-based, ATP luminescence, mouse fibroblasts (AID 2010); assay type: functional;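 also: cells exposed to compound for about 90 hours before reading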
[5] = inhibitors of intracellular T. cruzi replication, confirmation, NIH3T3 host cells, beta-gal luminescence (AID 2044); assay type: functional, cell-based;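 also: intracellular parasites grown in NIH/3T3 mouse fibroblasts as host cells; luminescent beta-galactosidase reporter signal from transgenic T. cruzi replicating inside host cells; inhibitors lower the luminescence signal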
[6] = molecular target: Cytochrome P450 2C19 (Homo sapiens, UniProt P33261); experiment: Cytochrome panel assay with activity outcomes. Panel member name: p450-cyp2c19 Compounds with AC50 equal or less than 10 uM are considered active; assay type: functional
[7] = molecular target: T2, Protein RecA (Mycobacterium tuberculosis, UniProt P9WHJ3); experiment: Fluorescence Cell-Free Homogeneous Dose Retest to Identify Inhibitors of RecA-Intein Splicing Activity. [Related pubchem assays (depositor defined):AID2097, AID2223, AID489010, AID492950]; assay type: functional
T2 sequence (P9WHJ3 whole entry): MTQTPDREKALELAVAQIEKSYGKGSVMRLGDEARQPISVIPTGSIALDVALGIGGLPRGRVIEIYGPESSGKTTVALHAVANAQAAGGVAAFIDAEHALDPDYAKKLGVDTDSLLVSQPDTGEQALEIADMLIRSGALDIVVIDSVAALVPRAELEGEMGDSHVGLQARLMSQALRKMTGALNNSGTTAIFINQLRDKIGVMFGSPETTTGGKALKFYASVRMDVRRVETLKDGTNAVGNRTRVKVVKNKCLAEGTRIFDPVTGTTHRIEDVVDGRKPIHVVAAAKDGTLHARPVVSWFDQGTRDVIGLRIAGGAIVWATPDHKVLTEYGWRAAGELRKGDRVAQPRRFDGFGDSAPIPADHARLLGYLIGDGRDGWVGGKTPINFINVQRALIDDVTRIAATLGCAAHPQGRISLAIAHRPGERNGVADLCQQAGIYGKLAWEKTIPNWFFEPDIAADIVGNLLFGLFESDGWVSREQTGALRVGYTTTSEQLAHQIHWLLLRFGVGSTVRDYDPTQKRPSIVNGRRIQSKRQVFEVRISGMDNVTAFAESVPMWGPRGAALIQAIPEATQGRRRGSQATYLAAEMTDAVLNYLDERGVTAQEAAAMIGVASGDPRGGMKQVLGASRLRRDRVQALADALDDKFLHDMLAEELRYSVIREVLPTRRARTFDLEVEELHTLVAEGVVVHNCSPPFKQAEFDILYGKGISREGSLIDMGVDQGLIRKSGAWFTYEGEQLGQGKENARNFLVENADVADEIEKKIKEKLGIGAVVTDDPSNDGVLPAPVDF

[8] = molecular target: T3, Replicative DNA helicase DnaB (Mycobacterium tuberculosis, UniProt P9WMR3); experiment: DnaB intein splicing inhibitors, dose response, biochemical, cell-free fluorescence (AID 449749); assay type: functional
T3 sequence (P9WMR3 whole entry): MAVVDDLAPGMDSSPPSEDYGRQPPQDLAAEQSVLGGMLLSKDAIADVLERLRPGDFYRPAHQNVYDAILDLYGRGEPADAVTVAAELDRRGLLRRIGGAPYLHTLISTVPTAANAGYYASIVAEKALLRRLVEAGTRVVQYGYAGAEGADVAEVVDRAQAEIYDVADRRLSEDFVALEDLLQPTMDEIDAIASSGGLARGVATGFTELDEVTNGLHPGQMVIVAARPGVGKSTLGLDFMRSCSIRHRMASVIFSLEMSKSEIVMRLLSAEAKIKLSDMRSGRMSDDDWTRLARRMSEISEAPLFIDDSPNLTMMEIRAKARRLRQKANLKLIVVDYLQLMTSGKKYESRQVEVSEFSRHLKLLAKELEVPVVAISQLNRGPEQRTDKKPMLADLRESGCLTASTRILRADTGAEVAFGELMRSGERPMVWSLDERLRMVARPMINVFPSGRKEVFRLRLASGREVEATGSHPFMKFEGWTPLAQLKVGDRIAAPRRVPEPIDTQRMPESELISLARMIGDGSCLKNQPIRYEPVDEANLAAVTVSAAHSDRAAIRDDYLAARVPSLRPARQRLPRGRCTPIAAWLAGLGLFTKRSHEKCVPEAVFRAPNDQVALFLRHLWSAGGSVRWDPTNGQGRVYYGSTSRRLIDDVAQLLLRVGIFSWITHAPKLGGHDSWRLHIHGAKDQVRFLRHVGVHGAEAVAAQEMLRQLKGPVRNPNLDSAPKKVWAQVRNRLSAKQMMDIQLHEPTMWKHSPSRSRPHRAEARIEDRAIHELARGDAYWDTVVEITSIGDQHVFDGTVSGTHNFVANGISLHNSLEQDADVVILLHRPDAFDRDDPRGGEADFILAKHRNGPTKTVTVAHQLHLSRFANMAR

Cytochrome P450 2C19, sequence (P33261 whole entry): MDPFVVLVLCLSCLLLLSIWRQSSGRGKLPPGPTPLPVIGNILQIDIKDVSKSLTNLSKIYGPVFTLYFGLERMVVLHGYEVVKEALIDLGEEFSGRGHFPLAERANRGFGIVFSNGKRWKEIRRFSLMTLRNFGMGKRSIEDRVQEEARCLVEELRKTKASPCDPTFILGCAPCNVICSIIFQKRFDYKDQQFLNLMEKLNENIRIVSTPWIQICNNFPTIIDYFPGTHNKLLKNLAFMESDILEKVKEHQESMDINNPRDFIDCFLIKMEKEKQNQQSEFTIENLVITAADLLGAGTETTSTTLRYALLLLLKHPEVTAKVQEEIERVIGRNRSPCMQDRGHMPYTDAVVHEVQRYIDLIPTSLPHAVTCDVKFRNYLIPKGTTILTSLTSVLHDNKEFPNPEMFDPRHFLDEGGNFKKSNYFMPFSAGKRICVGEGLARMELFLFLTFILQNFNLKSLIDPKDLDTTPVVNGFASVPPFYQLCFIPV

Compound | EC50 [1] | EC50 [2] | EC50 [3] | EC50 [4] | EC50 [5] | also measured
CCOc1ccc(C(=O)NC(=S)Nc2ccc(N3CCOCC3)c(Cl)c2)cc1[N+](=O)[O-] | > 150 µM (not active) | 0.724 µM (active) | 21.4 µM (active) |  |  | 
CN(CCc1ccccn1)C1CCCN(S(=O)(=O)c2ccc(F)c(Cl)c2)C1 (stereo unspecified) |  |  |  | > 60 µM (not active) | 1.2 µM (active) | 
C[C@@H](C(=O)NCCc1ccccc1)N1C(=O)N2CCc3c([nH]c4ccccc34)[C@@]2(C)C1=O |  |  |  | > 60 µM (not active) | 2 µM (active) | 
Cc1cc(=O)oc2cc(O)c(CN(C)CC(=O)O)cc12 |  |  |  |  |  | AC50 [6]: inconclusive
Cc1nn2c(O)cc(C(C)(C)C)nc2c1-c1ccccc1 |  | 2.71 µM (active) | 6.75 µM (active) | 4.17 µM (active) | 1.85 µM (active) | 
NC(=O)NC(=O)CSc1nc2cc([N+](=O)[O-])ccc2n1-c1cccc(C(F)(F)F)c1 | > 150 µM (not active) | 0.301 µM (active) | 19.2 µM (active) |  |  | 
Cc1c(C(=O)Nc2ccc(-c3nnc4n3CCCCC4)cc2)oc2ccc(Br)cc12 |  |  |  | > 60 µM (not active) | 1.18 µM (active) | 
CC(=O)c1ccc(NC(=O)CN2C(=O)/C(=C/C=C/c3ccccc3)SC2=S)cc1 | > 150 µM (not active) |  | > 150 µM (not active) |  |  | 
CC(=O)N1c2ccc(S(=O)(=O)N3CCC(C(=O)Nc4cc(C)ccn4)CC3)cc2CC1C (stereo unspecified) | > 150 µM (not active) | > 150 µM (not active) | > 150 µM (not active) |  |  | 
CC(C)C(=O)NC(=S)Nc1ccccc1N1CCN(C(=O)c2ccc(Cl)cc2)CC1 |  |  |  | > 60 µM (not active) | 1.47 µM (active) | 
C=CCN1C(=O)NC(=O)/C(=C(/C)Nc2ccc(N(CC)CC)cc2)C1=O | > 150 µM (not active) | 5.15 µM (active) | 14 µM (active) |  |  | 
CCCCN1C(=O)NC(=O)/C(=C(/CC)Nc2ccc3c(c2)CCC3)C1=O | 74.1 µM (active) | 15.9 µM (active) | > 150 µM (not active) |  |  | 
CCc1ccc(N(CC(=O)NC2CC2)S(=O)(=O)c2ccc(C)cc2)cc1 | > 150 µM (not active) | > 150 µM (not active) | > 150 µM (not active) |  |  | 
CCn1c(S)nnc1CCNC(=O)c1ccc(Cl)cc1Cl |  |  |  |  |  | AC50 ([6]; read-out: AC50): 10 µM (inconclusive)
CCCCNc1c(-c2ccc(-c3ccc(C(C)=O)cc3)c(OC)c2)nc2cnccn12 | 114 µM (inconclusive) | 5.22 µM (active) | 21.1 µM (active) |  |  | 
CC(C)Cc1nnc(NC(=O)c2ccc([N+](=O)[O-])cc2)s1 |  |  |  |  |  | AC50 [6]: inconclusive
CC1CCN(CC(O)COCCC23CC4CC(CC(C4)C2)C3)CC1 (stereo unspecified) |  |  |  | > 60 µM (not active) | 0.164 µM (active) | 
COC(=O)[C@@]1(Cc2ccc(F)cc2)[C@H]2c3cc(C(=O)N(C)C)n(CCSCCO)c3C[C@H]2CN1C(=O)c1ccccc1 |  |  |  |  |  | AC50 ([6]; read-out: AC50): 39.8 µM (inconclusive)
O=C(C[n+]1ccc2ccccc2c1)Nc1cc(C(F)(F)F)ccc1Cl | > 150 µM (not active) | > 150 µM (not active) | > 150 µM (not active) |  |  | 
CC(Oc1ccccc1)C(=O)NC1C(=O)N2C1SC(C)(C)C2C(=O)O (stereo unspecified) |  | 0.11 µM (active) | 0.124 µM (active) |  |  | 

Compound | EC50 [1] | EC50 [2] | EC50 [3] | EC50 [4] | EC50 [5] | also measured
Cc1ccc(S(=O)(=O)Cn2nnnc2C(C(C)C)N2CCN(c3nc4ccccc4s3)CC2)cc1 (stereo unspecified) |  |  |  | > 60 µM (inconclusive) | 0.532 µM (active) | 
Cc1onc(-c2ccccc2)c1C(=O)NNC(=S)NC(=O)/C=C/c1cccs1 |  | 1.02 µM (active) | 2.02 µM (active) |  |  | 
CCOC(=O)c1c(NC(=O)CSc2nnnn2-c2ccccc2)sc2c1CC(C)(C)NC2(C)C |  |  |  | 8.34 µM (active) | 0.831 µM (active) | 
Cc1sc(NC(=O)c2ccco2)c(CN2CCN(Cc3ccccc3)CC2)c1C |  |  |  | > 30 µM (not active) | 3.39 µM (active) | 
COc1ccc(CNc2ccc(Cl)cc2)cc1Cn1ccnc1 |  |  |  | > 60 µM (not active) | 0.114 µM (active) | 
COc1ccc(NS(=O)(=O)c2cccc(NC(=O)c3cnccn3)c2)cc1Br |  |  |  | > 60 µM (not active) | 1.79 µM (active) | 
N#Cc1c(NC(=O)CSc2nnc(Cc3ccccc3)[nH]2)oc(-c2ccccc2)c1-c1ccccc1 | 4.54 µM (active) |  |  |  |  | 
COCC1CCN(Cc2c[nH]nc2-c2cc3ccccc3o2)C1 (stereo unspecified) |  |  |  | > 60 µM (not active) | 0.76 µM (active) | 
COC(=O)c1ccc(-c2nc(CN3CCN(Cc4cccc(C)c4)CC3)c(C)o2)cc1 |  |  |  | > 60 µM (not active) | 0.164 µM (active) | 
O=C(Nc1nc(N2C(=O)c3ccccc3C2=O)n(-c2ccccc2)n1)c1ccc(Cl)cc1 | > 150 µM (not active) | 8.84 µM (active) | 22.9 µM (active) |  |  | 
CC(C)(C)c1ccc(C(=O)Nc2ccc(F)cc2)s1 | > 150 µM (not active) | > 150 µM (not active) | > 150 µM (not active) |  |  | 
O=C(Nc1ccc2c(c1)N(S(=O)(=O)c1cccs1)CCC2)c1c(F)cccc1Cl | > 150 µM (not active) | > 150 µM (not active) | > 150 µM (not active) |  |  | 
O=C(NC1CCN(Cc2ccccc2)CC1)c1ccccc1 |  |  |  | 10.8 µM (active) | 0.721 µM (active) | 
CN1CCN(CC(O)COC(c2ccccc2)c2ccccc2)CC1 (stereo unspecified) |  |  |  | > 30 µM (not active) | 1.3 µM (active) | 
COc1ccc(NC(=O)Nc2c(O)ccc3ccccc23)cc1 |  |  |  |  |  | EC50 [7]: 1.49 µM (active); AC50 [8]: > 380 µM (inactive)
C/C(=N\NC(=O)Cc1ccc(Cl)cc1)c1ccccc1O |  |  |  | 10.8 µM (active) | 2.79 µM (active) | 
COc1cc(/C=N/NC(=O)c2nnn(-c3nonc3N)c2C(C)C)ccc1OCc1ccc(F)cc1 | 13.4 µM (active) | 8.61 µM (active) | 47 µM (active) |  |  | 
Cc1nn(Cc2ccc(Cl)cc2Cl)c(Cl)c1/C=N/NC(=O)CNc1cccc(C(F)(F)F)c1 |  |  |  | > 60 µM (inconclusive) | 2.62 µM (active) | 
C/C(CC(=O)Nc1ccccn1)=N\NC(=O)C(=O)Nc1cccc(Cl)c1C |  |  |  |  |  | AC50 ([6]; read-out: AC50): 11.2 µM (inconclusive)
